Data taken from patent US10682415B2, “Thermogel formulation for combination drug delivery” (Wisconsin Alumni Research Foundation, priority 2013, dated 2020).
One block for each compound: values may come before it.

Experiments:
[1] = Initial gel formation experiments (stable thermogel with PLGA-PEG-PLGA); assay type: physicochemical; conditions: for Thermogel Formation: drug(s) with PLGA-PEG-PLGA polymer, about 1 mg drug per 10 mg polymer
[2] = test system: ES-2-luc human ovarian cancer cells; assay: In vitro cytotoxicity in ES-2-luc cells
[3] = neutral pH; cited from earlier work
[4] = Drug content incorporated in thermogel quantified by RP-HPLC; assay type: physicochemical
Protocol: (§1) The drug delivery system containing a combination of three drugs can be prepared as follows. Paclitaxel (PTX; 6 mg), 17-AAG (6 mg), and rapamycin (RAPA; 3 mg) were combined with 1.5 mL of tent-Butanol (TBA) to obtain a clear solution at 60° C. Separately, cold water was added to PLGA1.5k-PEG1k-PLGA1.5k and the mixture was incubated at refrigeration temperature (4° C.) for 2-3 days to obtain 100 mg/mL of polymer solution. The polymer solution (1.5 mL) was rapidly added to 1.5 mL of drug/TBA mixture (50% TBA). The mixture was rapidly vortexed and warmed to 60° C. for less than one minute to prevent phase separation. The mixture was rapidly frozen with ethanol/dry ice (−72° C.) for 1 hour and lyophilized for 24 hours (below 0.8 bar at −45° C.).
(§2) Samples were diluted with cold water and kept at 4° C. Liquefied samples were passed through about […] (e.g., clear solution (x)) to about 0.2 μm (e.g., clear solution (y)) of a regenerated cellulose membrane filter (RC filter) at 4° C. and concentrations were quantified using RP-HPLC.

[5] = Drug release kinetics of thermogel at 37° C. (cassette MWCO 20,000, first-order model); assay type: physicochemical
Protocol: The drug release kinetics of the composition at 37° C. was evaluated. Data is shown below in Table 1-3. […] Each cassette (MWCO 20,000) contained 0.3 mL of Triogel (n=3). […] The profile of the release kinetics was fit into a first-order model (Prism ver 5.0), as illustrated in FIG. 2.
The release kinetics of 1-drug thermogels (37° C.) were analyzed. Separately, compositions having 6 mg, 6 mg, and 3 mg of PTX, 17-AAG, and RAPA mixed with 60, 60, and 30 mg of polymers, respectively, in 1.0 mL of water were evaluated. Each cassette (MWCO 20,000) contained 0.3 mL of Thermogel (n=3). Profile of release kinetics was fit into a first-order model (Prism ver 5.0).

[6] = Rehydration time, gelation time and physical observation of lyophilized sample and gel; assay type: physicochemical
Protocol: as §1, §2
In general, an elegant lyophilized cake can improve rehydration time and solubility of the lyophilized cake in aqueous solution.

SMILES: CC1=C2C[C@H]3[C@@H](CC=C4C[C@@H](O)CC[C@@]43C)[C@@H]2CC[C@]12O[C@@H]1C[C@H](C)CN[C@H]1[C@H]2C [Cyclopamine (CYP), cyclopamine]
- Thermogel Formation [1]: No
- stable thermogel formation / gel integrity ([1]; warming the 4° C. solution with PLGA-PEG-PLGA to room temperature / 37° C.): a stable thermogel was unable to be prepared

SMILES: C=CCNC1=C2C[C@@H](C)C[C@H](OC)[C@H](O)[C@@H](C)/C=C(\C)[C@H](OC(N)=O)[C@@H](OC)/C=C\C=C(/C)C(=O)NC(=CC1=O)C2=O [17-AAG, 17-allylamino-17-demethoxygeldanamycin]
- cytotoxic effect (in words) [2]: did not induce significant cytotoxic effect
- IC50 ([2]; drug(s) dissolved in a mixture of DMSO and medium): 0.9336 ± 0.0018 µM
- water solubility [3]: about 0.1 mg/mL

SMILES: CO[C@H]1C[C@@H]2CC[C@@H](C)[C@@](O)(O2)C(=O)C(=O)N2CCCC[C@H]2C(=O)O[C@H]([C@H](C)C[C@@H]2CC[C@@H](O)[C@H](OC)C2)CC(=O)[C@H](C)/C=C(\C)[C@@H](O)[C@@H](OC)C(=O)[C@H](C)C[C@H](C)/C=C/C=C/C=C/1C [RAPA, rapamycin]
- cytotoxic effect (in words) [2]: did not induce significant cytotoxic effect

- Thermogel Formation [1]: Yes
- PTX gel incorporation by RP-HPLC analysis ([4]; 6 mg PTX in 150 mg of polymer and 50 wt. % TBA): 5.33 mg
- Final level of drug, PTX ([4]; single, two and three drug compositions, initial level 6.0 mg/mL): 5.8 ± 0.5 mg/mL
- time to form a gel at room temperature ([6]; room temperature): less than two minutes
- time gel-like form is retained ([6]; room temperature, 6 mg PTX in 150 mg of polymer): more than two weeks
- Physical obs. of gel ([6]; single, two and three drug compositions): Good
SMILES: CC(=O)O[C@H]1C(=O)[C@@]2(C)[C@H]([C@H](OC(=O)c3ccccc3)[C@]3(O)C[C@H](OC(=O)[C@H](O)[C@@H](NC(=O)c4ccccc4)c4ccccc4)C(C)=C1C3(C)C)[C@]1(OC(C)=O)CO[C@@H]1C[C@@H]2O [PTX, paclitaxel]
- k: release kinetic constant ([5]; release from Triogel (6 mg/6 mg/3 mg PTX/17-AAG/RAPA, 150 mg polymer, 1 mL water), n = 3): 0.0577 ± 0.0230 h⁻¹
- k (release kinetic constant) ([5]; release from two drug thermogel PTX/17-AAG (6 mg/6 mg in 120 mg polymer, 1 mL water)): 0.2037 ± 0.0575 h⁻¹
- k (release kinetic constant) ([5]; release from two drug thermogel PTX/RAPA (6 mg/3 mg in 90 mg polymer, 1 mL water)): 0.1035 ± 0.0354 h⁻¹
- k (release kinetic constant) ([5]; single drug compositions, n = 3): 0.0682 ± 0.0112 h⁻¹
